Experimental data taken from patent publication US7115797B2, “Mice lacking inward-rectifying potassium channel Kir6.1” (JCR Pharmaceuticals Co., Ltd., priority 2002, dated 2006).

How the values were obtained:
[1] = test system: ventricular cells; test: Whole-cell membrane currents of isolated ventricular cells (patch-clamp, ramp-pulse protocol); type: cell-based, mouse; details: ventricular cells of both Kir6.1+/+ and Kir6.1-/- mice
Procedure: (§1) Kir6.1 is expressed most abundantly in the heart (24), and is present in cardiomyocytes (25). Therefore, electrophysiological properties of ventricular myocytes isolated from Kir6.1^+/+ and Kir6.1^−/− mice were compared. The quasi-steady-state membrane currents were recorded using a ramp-pulse protocol.
(§2) Briefly, single ventricular cells of the heart were enzymatically isolated and whole-cell membrane currents were recorded by the patch-clamp method (13). The pipette solution was composed of 20 mM KCl, 1 mM MgCl2, 1 mM phosphocreatine-K2, 110 mM K1-aspartate, 1 mM K2-ATP, 1.0 mM EGTA, 5 mM HEPES (pCa 8.0, pH 7.4). The external solution used was a HEPES-Tyrode solution containing 143 mM NaCl, 5.4 mM KCl, 1.8 mM CaCl2, 0.5 mM MgCl2, 0.33 mM NaHPO4, […], 5 mM HEPES (pH 7.4). Voltage- and current-clamp experiments in heart cells were performed at 36.0° C.

[2] = test system: aorta smooth muscle cells; test: Whole-cell membrane currents of aorta smooth muscle cells; type: cell-based, mouse; details: for density of pinacidil-induced, glibenclamide-sensitive inward K+ current: held at -40 mV, high K+ (140 mM) solution, mean±SE
Procedure: Single smooth muscle cells of thoracic aorta were enzymatically isolated and electrophysiological studies were conducted in the same manner as performed in the cardiomyocytes.
The compositions of the extracellular high K^+ solution and the pipette solution used in this smooth muscle cell experiment were as follows. The external high-K^+ solution: 2.9 mM NaCl, 140 mM KCl, 2.2 mM CaCl2, 1.2 mM MgCl2, 14 mM glucose and 10 mM HEPES-KOH buffer (pH 7.4). The pipette solution: 140 mM KCl, 4 mM MgCl2, 1 mM ATP-K2, 10 mM EGTA and 10 mM HEPES-KOH solution (pH 7.2). The membrane current was measured at room temperature.
Effect of […] pinacidil was tested on whole-cell membrane currents of aorta smooth muscle cells held at −40 mV in high K^+ (140 mM) solution.

[3] = test system: ventricular cells; test: Action potential recording in isolated ventricular cells (current-clamp); type: cell-based, mouse; details: for APD at 90% repolarization level (APD90): mean±SE
Procedure: as §1, §2

[4] = test system: anesthetized mice; test: Measurement of aortic blood pressure (mean arterial pressure) in anesthetized mice; type: in vivo, mouse; details: Kir6.1+/+ mice; intravenous 0.3 mg/kg; within 5 minutes; urethane anesthesia
Procedure: K^+ channel openers are known to lower arterial blood pressure by relaxing vascular smooth muscles by opening vascular KATP channels. The present inventors examined the vasodilation response to the K^+ channel opener pinacidil in Kir6.1^+/+ and Kir6.1^−/− mice, in vivo at first.
Hemodynamic measurements were carried out according to the method described by, Suzuki, et al. (12). Changes of mean arterial pressure (MAP) after intravenous injection of 0.3 mg/kg pinacidil are indicated on the ordinate. The points show mean±SE of 6 animals for both groups.

[5] = test system: aortic rings; test: Aortic contraction in isolated aortic preparation (tension of thoracic aortic rings precontracted by norepinephrine); type: cell-based, mouse; details: precontracted by 0.1 μM norepinephrine, cumulative pinacidil
Procedure: The vasodilation response of thoracic aorta to the K^+ channel opener was further examined in vitro by measuring changes in the tension of aortic rings isolated from Kir6.1^+/+ and Kir6.1^−/− mice (FIG. 12). In the same manner as described by Suzuki et al. (13), mechanical function studies of isolated thoracic aorta were carried out. Briefly, the thoracic aorta without the endothelium was removed and cut into rings (4 mm in length). For isometric tension recording, the rings were mounted in a thermostatic organ bath. The bath was perfused with Krebs-Henseleit solution gassed with 95% O2/5% CO2. The aortic rings were precontracted by 0.1 μM norepinephrine, and pinacidil was added in a cumulative manner.

[6] = test system: Langendorff-perfused hearts; test: Induction of coronary spasm by methylergometrine in vitro (ECG of Langendorff-perfused hearts); parameters: species or system mouse; details: 20 mg
Procedure: (§3) ECG recordings of conscious mice under unrestricted conditions were obtained using an implantable radio frequency transmitter (TA10ETA-F20) (DATA SCIENCES, St. Paul, Minn.), with subcutaneous leads placed in the conventional lead II position. ECGs of anesthetized mice and isolated hearts (Langendorff-perfused heart) were recorded with leads placed on the body surface (lead II) or epicardium.
(§4) To link dysregulation of vascular tonus and sudden death in Kir6.1^−/− mice, an examination was tried to induce vasospasm using methylergometrine, an ergot alkaloid that stimulates serotonergic receptors and directly triggers the vasoconstriction of vascular smooth muscles (26).

[7] = test system: anesthetized mice; test: Induction of coronary spasm by methylergometrine in vivo (ECG of anesthetized mice)
Procedure: as §3, §4

[8] = anesthetized Kir6.1-/- mice, intravenous injection 20 mg

COc1ccc(Cl)cc1C(=O)NCCc1ccc(S(=O)(=O)NC(=O)NC2CCCCC2)cc1 [glibenclamide]
block of pinacidil-induced outward current ([1]; 1 μM glibenclamide): blocked | block of pinacidil-elicited inward K+ currents ([2]; Kir6.1+/+ smooth muscle cells): blocked | reversal of pinacidil-induced APD90 shortening ([3]; addition of 1 μM glibenclamide after 100 μM pinacidil, Kir6.1+/+ and Kir6.1-/- cells): reversed to control levels

CC(N/C(=N\C#N)Nc1ccncc1)C(C)(C)C (centres unmarked) [pinacidil]
outward current (ATP-sensitive K+ current, IK,ATP) ([1]; pinacidil 1, 10 or 100 μM, 36.0° C): concentration-dependent increases of an outward current | decrease in MAP [4]: about 30 mmHg | density of pinacidil-induced, glibenclamide-sensitive inward K+ current ([2]; Kir6.1+/+ smooth muscle cells): 9.53±2.32 pA/pF | density of pinacidil-induced, glibenclamide-sensitive inward K+ current ([2]; Kir6.1-/- smooth muscle cells): 0.13±0.07 pA/pF | vasodilating effect ([5]; aortic rings from Kir6.1+/+ mice): concentration-dependent vasodilating effect | vasodilating effect ([5]; aortic rings from Kir6.1-/- mice): din not elicit any KATP channel-mediated vasodilating effect | APD at 90% repolarization level (APD90) ([3]; Kir6.1+/+ ventricular cells, after 100 μM pinacidil (before: 31.6±2.3 ms)): 18.3 ± 2.2 ms | APD at 90% repolarization level (APD90) ([3]; Kir6.1-/- ventricular cells, after 100 μM pinacidil (before: 31.1±4.2 ms)): 18.3 ± 3.9 ms

CC[C@@H](CO)NC(=O)[C@@H]1C=C2c3cccc4[nH]cc(c34)C[C@H]2N(C)C1 [methylergometrine]
elevation of the ST segment in isolated hearts (hearts affected) ([6]; isolated hearts of Kir6.1+/+ mice): 0/5 | elevation of the ST segment in isolated hearts (hearts affected) ([6]; isolated hearts of Kir6.1-/- mice): 4/4 | significant changes in ECG or death (animals affected) ([7]; Kir6.1+/+ mice, intravenous injection): none of 7 | cardiac death concomitantly with changes in ECG (animals affected) ([7]; Kir6.1-/- mice, intravenous injection 20 mg): 5 Kir6.1^−/− mice out of 8 | depression of ST segments on ECG (animals affected) [7, 8]: 1 animal out of 8 | elevation of ST segments on ECG (animals affected) [7, 8]: 4 animals out of 8
